Data as given in patent US20170016884A1, “A NOVEL, HIGH-THROUGHPUT, NANOTOPOGRAPHIC PLATFORM FOR SCREENING CELL MIGRATORY BEHAVIOR” (THE JOHNS HOPKINS UNIVERSITY, priority 2014, published 2017).

What was measured:
primary human GB cells [1] = assay: cell migration on multi-well nanopatterned platform (time-lapse microscopy); format: cell-based; conditions: for fraction of cells maintaining slower speeds (≦15 μm/hr): PDGF-exposed
Method: (§1) Cells were cultured in the multi-well, nanopatterned device for approximately 48 hours in the course of each experiment. Prior to plating cells, nanoridged substrata were coated with poly-D-lysine (10 μg ml-1) for 15 minutes and mouse laminin (from 10 to 140 μg ml-1) for 1 hour. These topographically patterned cell substrata, caused cells to align with and move along the direction of the nanoridges. Both prior to, and during experiments cells were maintained at 37° C. and 5% CO2 in Dulbecco's Modified Eagle Medium: Nutrient Mixture F-12 containing 2 mM L-glutamine, with added 50 U mL-1 penicillin, […] streptomycin. Where indicated, media contained 10% fetal bovine serum (Invitrogen) or alternatively, Platelet-Derive Growth Factor-AA (PDGF-AA) (LC Laboratories) at specified concentrations.
Cell migration was observed using time-lapse microscopy (Movies S1-S3). To enable long-term observation, the multi-well, nanopatterned device was mounted onto the stage of a motorized inverted microscope (Olympus IX81) equipped with a Photometrics® Cascade® 512B II CCD camera and temperature and gas controlling environmental chamber. Phase contrast cell images were automatically recorded under 10× objective (NA=0.30) using the SlideBook™ 4.1 Software (Intelligent Imaging Innovations, Denver, Colo.) for 10-15 hours at 10 or 20 minute intervals.
Because cell-cell contact is known to affect the extent of cell spreading and migration, cells were plated at low density (˜4×10^4 cells mL -1) to allow isolated movements. A custom-made MATLAB® script was used allow manual tracking and measurement of cells frame by frame. Analysis was stopped in the event of cell death, division, collision with non-cellular debris, or movement out of the field of view. Area and spindle shape factor of individual cells was measured in each frame, and averaged over the entire duration of the experiment. The spindle shape factor was defined as the ratio of the maximum cell length (long axis) to the maximum cell width in the direction perpendicular to long axis, regardless of the orientation with respect to nanoridge pattern. Averages of cell populations were calculated from at least 60 cells.
Cells movements were tracked by centroid position or by the approximate center of the cell body. Individual cell trajectories were used to calculate the mean squared displacement (MSD) at each interval. Instantaneous speeds of individual cells were calculated from the MSD and the duration of the image acquisition time interval. Average speeds of individual cells were calculated from the total distanced moved throughout the entire cell trajectory and the total time the cell was tracked. Persistence was obtained as previously described, by calculating the ratio of the shortest distance between starting point and end point, divided by the total distanced moved. Alignment to the nanoridge pattern was calculated by dividing the distance moved parallel to the ridges, by the distance moved perpendicular to the ridges. Averages of cell populations were calculated from at least 60 cells.

GB = conditions: cited from earlier work
PDGFRα = PDGFRα (Homo sapiens, UniProt P16234); conditions: cited from earlier work
human GB cells = assay: mouse intracranial tumor xenograft of human GB cells with PDGF exposure; format: in vivo
Method: All animal protocols were approved by the Johns Hopkins School of Medicine Animal Care and Use Committee. For intracranial xenografts, SCID immnodeficient mice received 100,000 viable cells in 1 μl of DMEM/F12 serum media without growth factors by stereotactic injection into the right striatum. Cells were cultured in DMEM/F12 serum media with EGF/FGF and PDGF-AA ligand for three weeks before injections were performed. Cell viability was determined by trypan blue dye exclusion. Mice were perfused with 4% paraformaldehyde at the indicated times and the brains were removed for histological analysis.

primary human GB cells [2] = assay: cell migration on flat (smooth) substrata; format: cell-based
Method: as §1, with “Prior to plating cells, nanoridged substrata were coated with poly-D-lysine (10 μg ml-1) for 15 minutes and mouse laminin (from 10 to 140 μg ml-1) for 1 hour.” left out
Cell migration was observed using time-lapse microscopy (Movies S1-S3). […] Phase contrast cell images were automatically recorded under 10× objective (NA=0.30) using the SlideBook™ 4.1 Software (Intelligent Imaging Innovations, Denver, Colo.) for 10-15 hours at 10 or 20 minute intervals.
Because cell-cell contact is known to affect the extent of cell spreading and migration, cells were plated at low density (˜4×10^4 cells mL -1) to allow isolated movements. […] Area and spindle shape factor of individual cells was measured in each frame, and averaged over the entire duration of the experiment. […] Averages of cell populations were calculated from at least 60 cells. […]

Akt = Akt phosphorylation via immunoblotting; format: cell-based, human; conditions: FIG. 10B
Method: Total cellular protein was extracted using NE-PER Nuclear and Cytoplasmic Extraction Reagents kit according to the manufacturer's instructions (Thermo Scientific) containing protease (Roche) and phosphatase inhibitor (Thermo). Protein concentration was determined using the Bradford protein quantification method (Biorad Protein Assay, Biorad). SDS-PAGE was performed with 25 μg total cellular protein per lane using 4-12% gradient Tris glycine gels. The primary antibodies used were as follows: anti PDGFR-alpha (1:200; Santa Cruz); phospho-PDGFR alpha (1:1000; Cell Signaling); Akt (1:1000; Cell Signaling);
phospho-Akt (1:1000; Cell Signaling).

PDGFRα, sequence (P16234 24-1089): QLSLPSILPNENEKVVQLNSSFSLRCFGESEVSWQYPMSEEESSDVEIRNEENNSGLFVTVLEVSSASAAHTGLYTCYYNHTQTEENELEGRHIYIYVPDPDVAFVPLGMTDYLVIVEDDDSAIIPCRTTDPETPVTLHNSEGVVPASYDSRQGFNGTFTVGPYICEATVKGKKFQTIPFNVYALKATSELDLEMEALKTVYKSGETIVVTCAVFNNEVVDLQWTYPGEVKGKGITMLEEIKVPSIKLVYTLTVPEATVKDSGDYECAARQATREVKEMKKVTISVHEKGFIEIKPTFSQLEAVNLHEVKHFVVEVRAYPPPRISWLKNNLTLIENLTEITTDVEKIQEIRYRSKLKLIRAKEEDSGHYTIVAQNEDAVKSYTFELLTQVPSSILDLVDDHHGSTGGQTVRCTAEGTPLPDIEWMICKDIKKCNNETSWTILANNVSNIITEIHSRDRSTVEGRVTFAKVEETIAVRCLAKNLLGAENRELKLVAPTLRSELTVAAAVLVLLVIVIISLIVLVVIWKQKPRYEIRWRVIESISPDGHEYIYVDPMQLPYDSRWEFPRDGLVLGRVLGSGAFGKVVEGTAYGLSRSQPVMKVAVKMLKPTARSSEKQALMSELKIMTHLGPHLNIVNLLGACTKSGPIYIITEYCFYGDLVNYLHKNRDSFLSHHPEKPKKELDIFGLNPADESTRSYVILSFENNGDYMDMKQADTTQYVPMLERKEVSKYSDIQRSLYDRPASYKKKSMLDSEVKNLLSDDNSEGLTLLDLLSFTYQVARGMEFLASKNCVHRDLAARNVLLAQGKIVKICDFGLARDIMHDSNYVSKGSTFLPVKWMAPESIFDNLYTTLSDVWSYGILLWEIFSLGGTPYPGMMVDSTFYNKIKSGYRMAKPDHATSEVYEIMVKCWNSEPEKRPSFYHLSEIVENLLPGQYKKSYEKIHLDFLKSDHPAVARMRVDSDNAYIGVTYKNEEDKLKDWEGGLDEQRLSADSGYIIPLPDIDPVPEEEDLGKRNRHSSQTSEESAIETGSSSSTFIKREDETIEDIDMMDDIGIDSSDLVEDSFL

In the case of Cc1ccc(NC(=O)c2ccc(CN3CCN(C)CC3)cc2)cc1Nc1nccc(-c2cccnc2)n1 [Imatinib], the “effect on PDGF-stimulated migration (speed and alignment)” value (primary human GB cells [1]; 'responding' sample GB 276, PDGF-stimulated) is listed as “attenuation of enhancements in speed and alignment”, the GB growth (GB) is listed as “inhibit GB growth in vitro and in vivo” and the “interaction with PDGFRα” value (PDGFRα) is listed as “known to interact with PDGFRα”.
In the case of PDGF, the survival of mice (human GB cells; GB 276 neurospheres cultured with PDGF three weeks before intracranial injection, n=4) is reported as “significantly reduced survival”, the “tumor size, invasiveness and shape” value (human GB cells; continuous PDGF exposure of tumor xenografts via infusion pump, n=2) is reported as “larger, more invasion tumors with more eccentric shapes” and the “increase in migration speed upon PDGF stimulation vs unstimulated cells” value (primary human GB cells [1]; 'responding' GB samples, PDGF 40-50 ng/mL) is reported as 15-100%. For the same compound, the “fraction of cells maintaining slower speeds (≦15 μm/hr)” value (primary human GB cells [1]; GB 318 cells) was “roughly 70%”, the “fraction of cells maintaining slower speeds (≦15 μm/hr)” value (primary human GB cells [1]; GB 630 cells) was about 60% and the “sub-population of aggressive cells accounting for the increased average migration speed” value (primary human GB cells [1]; in the presence of PDGF) was “approximately 20%”. For the same compound, the “maximal motility relative to control” value (primary human GB cells [1]; nanopatterned system, intermediate PDGF concentrations, serum-free medium) was “up to 2 fold”, the “dose dependence of response in migration speed and persistence” value (primary human GB cells [1]; nanopatterned system, seven PDGF concentrations) was “clear graded dose dependence” and the “migratory response to PDGF exposure” value (primary human GB cells [2]) was “much more limited responses”. The “phosphorylation (activation) of downstream effector Akt” value (Akt) was “PDGFdependent”.
For “laminin: surface-immobilized ECM protein used to coat substrata”, the “response of speed, alignment and persistence to laminin coating concentration” value (primary human GB cells [1]; GB 318 cells, nanopatterned substrata, optimum at intermediate laminin values) was “biphasic response” and the “differences in migration at varying laminin densities” value (primary human GB cells [2]; GB 318 cells) was “did not observe statistically significant differences”.
